What was measured:
[1] = target: GPR35 (Homo sapiens (Human), UniProt Q9HC97); test: Label-free DMR functional assay in HT-29 cells; format: cell-based; conditions: HT-29 cell line endogenously expressing human GPR35; DMR normalised to Lodoxamide
Procedure: HT-29 cells (ATCC HTB-38) kept in continuous culture in McCoys (Thermo 16600082) supplemented with 10% FBS. Day prior to assay, cells harvested with TrypLE (Gibco12604-013), and plated at 20 k/well in culture media in a total volume of 50 ul in Corning EPIC 384 well plates (5040) overnight 37° C. 5% CO2. On the day of assay, cell media was removed and replaced with assay buffer (HBSS+20 mM HEPES pH7.4) and reincubated for 1 h. Compounds were prepared in 100% DMSO in ECHO LDV 384 source plates. Cell plates were read on an EPIC plate reader at room temperature for 15 mins, read paused, and cell plate added to LabCyte ECHO 550 for addition of 50 nl per well compound by acoustic transfer. Plates were immediately placed back into the EPIC reader, read unpaused and Dynamic Mass Redistribution measured for 60 minutes. Raw data was analysed by EPIC Analyser software and max peak taken per concentration to enable EC50 determination. All raw DMR data was normalised to Lodoxamide and buffer corrected.
(§1) • Ki values derived from concentration response analysis in HEKf cell membranes overexpressing GPR35a isoform. EC50 values derived from concentration response analysis in HT-29 cell line endogenously expressing human GPR35.

[2] = target: Human GPR35a isoform (Homo sapiens (Human), UniProt Q9HC97); test: Human GPR35a isoform binding (radioligand, HEK293f membranes); conditions: HEKf cell membranes overexpressing GPR35a isoform; read-out: Human GPR35 Ki
Human GPR35a isoform, sequence (Q9HC97 whole entry, canonical isoform): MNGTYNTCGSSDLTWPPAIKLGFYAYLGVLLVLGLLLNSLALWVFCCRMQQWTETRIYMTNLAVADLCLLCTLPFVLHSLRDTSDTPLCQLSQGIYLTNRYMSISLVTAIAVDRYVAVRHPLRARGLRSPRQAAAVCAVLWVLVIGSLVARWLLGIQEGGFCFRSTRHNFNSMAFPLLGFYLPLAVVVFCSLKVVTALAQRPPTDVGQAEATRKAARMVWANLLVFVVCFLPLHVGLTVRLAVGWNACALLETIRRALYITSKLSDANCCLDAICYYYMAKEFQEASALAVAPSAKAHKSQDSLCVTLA
Procedure: Overexpression of Human GPR35a Baculovirus in HEK293f cells at a cell density of 2.5×10^6 cells/mL and a multiplicity of infection of 2.5 over 24 h in Pro293 (Lonza)+5% FBS, 1% Glutamax and 0.4% Pen/Strep. Cells harvested and centrifuged at 2500 RPM for 10 mins at 4° C. The supernatant was then poured off and the pellet stored at −80° C. The pellet was defrosted and re-suspended in 15 mL of homogenising buffer (20 mM HEPES, 10 mM EDTA, pH 7.4). Then homogenised in mechanical homogeniser (VMR) for 10 seconds. The membrane was centrifuged in centrifuge tubes at 40,000 g for 15 mins at 4° C. The supernatant was poured away and re-suspended in 15 mL of homogenising buffer. Homogenised for 20 seconds. The membrane was centrifuged at 40,000 g for 45 mins at 4° C. The membrane was re-suspended in 3 mL of storage buffer (20 mM HEPES, 0.1 mM EDTA, pH 7.4) mixing well. The resulting membranes were then stored at −80°. GPR35 cell membrane homogenates were re-suspended in the binding buffer (50 mM TRIS+10 mM MgCl2 pH 7.4) to a final assay concentration of 5 ug/well. Test compounds were diluted in dimethylsulphoxide (DMSO (Sigma Aldrich, UK)), to form a 10 point ½ log concentration curve. Test compounds were added per plate, followed by 7 nM 3H-27966. 0.1 uM FAC Lodoxamide was added in order to allow non-specific binding to be calculated. Finally, membrane was added to each well on the plate. After 60 min incubation at room temperature, membranes were filtered onto a unifilter, 96-well white microplate with bonded GF/B filter, pre-soaked in ddH20, with a TomTec cell harvester, and washed 5 times with distilled water. Plates were dried prior to 50 ul/well scintillant added, sealed and radioactivity measured using a MicroBeta analyser. IC50 values were derived from the inhibition curve and affinity constant (Ki) values were calculated using the Cheng-Prussoff equation, where; pKi=−log 10 Ki.
as §1

GPR35, sequence (Q9HC97 whole entry): as the sequence (Q9HC97 whole entry, canonical isoform) above

SMILES	EC50 [1]	Ki [2]
O=c1c(O)c(Nc2cccc(-c3nn[nH]n3)c2)c1=O [Example 1, 3-((3-(1H-tetrazol-5-yl)phenyl)amino)-4-hydroxycyclobut-3-ene-1,2-dione]	8.68 nM	
O=c1c(O)c(Nc2cc(-c3nn[nH]n3)cc(C(F)(F)F)c2)c1=O [Example 2, 3-((3-(1H-tetrazol-5-yl)-5-(trifluoromethyl)phenyl)amino)-4-hydroxycyclobut-3-ene-1,2-dione]	0.9 nM	0.48 nM
O=c1c(O)c(Nc2cc(-c3ccccc3)cc(-c3nn[nH]n3)c2)c1=O [Example 3, 3-((5-(1H-tetrazol-5-yl)-[1,1′-biphenyl]-3-yl)amino)-4-hydroxycyclobut-3-ene-1,2-dione]	2.27 nM	
CCOC(=O)c1cccc(-c2cc(Nc3c(O)c(=O)c3=O)cc(-c3nn[nH]n3)c2)c1 [Example 4, ethyl 3′-((2-hydroxy-3,4-dioxocyclobut-1-en-1-yl)amino)-5′-(1H-tetrazol-5-yl)-[1,1′-biphenyl]-3-carboxylate]	2.5 nM	3.83 nM
O=C(NCc1ccccc1)c1cccc(-c2cc(Nc3c(O)c(=O)c3=O)cc(-c3nn[nH]n3)c2)c1 [Example 6, N-benzyl-3′-((2-hydroxy-3,4-dioxocyclobut-1-en-1-yl)amino)-5′-(1H-tetrazol-5-yl)-[1,1′-biphenyl]-3-carboxamide]	0.62 nM	1.82 nM
COCCNC(=O)c1ccc(-c2cc(Nc3c(O)c(=O)c3=O)cc(-c3nn[nH]n3)c2)cc1 [Example 7, 3′-((2-hydroxy-3,4-dioxocyclobut-1-en-1-yl)amino)-N-(2-methoxyethyl)-5′-(1H-tetrazol-5-yl)-[1,1′-biphenyl]-4-carboxamide]	4.2 nM	2.77 nM
COCCOc1ccc(CNC(=O)c2ccc(-c3cc(Nc4c(O)c(=O)c4=O)cc(-c4nn[nH]n4)c3)cc2)cc1 [Example 8, 3′-((2-hydroxy-3,4-dioxocyclobut-1-en-1-yl)amino)-N-(4-(2-methoxyethoxy)benzyl)-5′-(1H-tetrazol-5-yl)-[1,1′-biphenyl]-4-carboxamide]	0.66 nM	1.47 nM
COc1cccc(-c2cc(Nc3c(O)c(=O)c3=O)cc(-c3nn[nH]n3)c2)c1 [Example 9, 3-hydroxy-4-((3′-methoxy-5-(1H-tetrazol-5-yl)-[1,1′-biphenyl]-3-yl)amino)cyclobut-3-ene-1,2-dione]	0.83 nM	0.46 nM
CCc1cc(Nc2c(O)c(=O)c2=O)cc(-c2nn[nH]n2)c1 [Example 10, 3-((3-ethyl-5-(1H-tetrazol-5-yl)phenyl)amino)-4-hydroxycyclobut-3-ene-1,2-dione]	2.34 nM	2.75 nM
O=C(O)c1cccc(-c2cc(Nc3c(O)c(=O)c3=O)cc(-c3nn[nH]n3)c2)c1 [Example 11, 3′-((2-hydroxy-3,4-dioxocyclobut-1-en-1-yl)amino)-5′-(1H-tetrazol-5-yl)-[1,1′-biphenyl]-3-carboxylic acid]	4.31 nM	6.24 nM
O=C(NCc1ccc(C(F)(F)F)cc1)c1ccc(-c2cc(Nc3c(O)c(=O)c3=O)cc(-c3nn[nH]n3)c2)cc1 [Example 12, 3′-((2-hydroxy-3,4-dioxocyclobut-1-en-1-yl)amino)-5′-(1H-tetrazol-5-yl)-N-(4-(trifluoromethyl)benzyl)-[1,1′-biphenyl]-4-carboxamide]	0.03 nM	0.31 nM
O=c1c(O)c(Nc2ccc(F)c(-c3nn[nH]n3)c2)c1=O [Example 13, 3-((4-fluoro-3-(1H-tetrazol-5-yl)phenyl)amino)-4-hydroxycyclobut-3-ene-1,2-dione]	2.39 nM	0.99 nM
O=c1c(O)c(Nc2ccc(Cl)c(-c3nn[nH]n3)c2)c1=O [Example 14, 3-((4-chloro-3-(1H-tetrazol-5-yl)phenyl)amino)-4-hydroxycyclobut-3-ene-1,2-dione]	4.9 nM	0.6 nM
O=c1c(O)c(Nc2cc(-c3ccc(C(F)(F)F)cc3)cc(-c3nn[nH]n3)c2)c1=O [Example 15, 3-((5-(1H-tetrazol-5-yl)-4′-(trifluoromethyl)-[1,1′-biphenyl]-3-yl)amino)-4-hydroxycyclobut-3-ene-1,2-dione]	2.02 nM	0.16 nM
O=c1c(O)c(Nc2cc(-c3ccc(OCc4ccccc4)nc3)cc(-c3nn[nH]n3)c2)c1=O [Example 16, 3-((3-(6-(benzyloxy)pyridin-3-yl)-5-(1H-tetrazol-5-yl)phenyl)amino)-4-hydroxycyclobut-3-ene-1,2-dione]	0.27 nM	0.06 nM
COc1cc(-c2nn[nH]n2)cc(Nc2c(O)c(=O)c2=O)n1 [Example 17, 3-hydroxy-4-((6-methoxy-4-(1H-tetrazol-5-yl)pyridin-2-yl)amino)cyclobut-3-ene-1,2-dione]	9.25 nM	7.85 nM
O=c1c(O)c(Nc2cc(-c3nn[nH]n3)cc(-c3ccccc3)n2)c1=O [Example 18, 3-hydroxy-4-((6-phenyl-4-(1H-tetrazol-5-yl)pyridin-2-yl)amino)cyclobut-3-ene-1,2-dione]	5.18 nM	2.65 nM
O=c1c(O)c(Nc2cc(-c3ccc4nn(Cc5ccc(C(F)(F)F)cc5)cc4c3)cc(-c3nn[nH]n3)c2)c1=O [Example 19, 3-((3-(1H-tetrazol-5-yl)-5-(2-(4-(trifluoromethyl)benzyl)-2H-indazol-5-yl)phenyl)amino)-4-hydroxycyclobut-3-ene-1,2-dione]	0.08 nM	0.36 nM
O=c1c(O)c(Nc2cc(-c3ccc(OCc4ccc(C(F)(F)F)cc4)nc3)cc(-c3nn[nH]n3)c2)c1=O [Example 20, 3-((3-(1H-tetrazol-5-yl)-5-(6-((4-(trifluoromethyl)benzyl)oxy)pyridin-3-yl)phenyl)amino)-4-hydroxycyclobut-3-ene-1,2-dione]	7.68 nM	1.06 nM
O=c1c(O)c(Nc2cc(-c3nn[nH]n3)cc(Oc3ccccc3)n2)c1=O [Example 22, 3-hydroxy-4-((6-phenoxy-4-(1H-tetrazol-5-yl)pyridin-2-yl)amino)cyclobut-3-ene-1,2-dione]	1.39 nM	3.66 nM
O=c1c(O)c(Nc2cc(-c3ccc4cn(CCOc5ccc(C(F)(F)F)cc5)nc4c3)cc(-c3nnn[nH]3)c2)c1=O [Example 23, 3-((3-(1H-tetrazol-5-yl)-5-(2-(2-(4-(trifluoromethyl)phenoxy)ethyl)-2H-indazol-6-yl)phenyl)amino)-4-hydroxycyclobut-3-ene-1,2-dione]	0.12 nM	0.46 nM
O=c1c(O)c(Nc2cc(-c3nn[nH]n3)cc(C3CC3)c2)c1=O [Example 24, 3-((3-cyclopropyl-5-(1H-tetrazol-5-yl)phenyl)amino)-4-hydroxycyclobut-3-ene-1,2-dione]	8.19 nM	15.2 nM
O=c1c(O)c(Nc2cc(-c3ccc4[nH]ncc4c3)cc(-c3nn[nH]n3)c2)c1=O [Example 25, 3-((3-(1H-indazol-5-yl)-5-(1H-tetrazol-5-yl)phenyl)amino)-4-hydroxycyclobut-3-ene-1,2-dione]	0.44 nM	0.37 nM
O=c1c(O)c(Nc2cc(-c3ccc(OCCOc4cc(C(F)(F)F)cc(C(F)(F)F)c4)nc3)cc(-c3nn[nH]n3)c2)c1=O [Example 26, 3-((3-(6-(2-(3,5-bis(trifluoromethyl)phenoxy)ethoxy)pyridin-3-yl)-5-(1H-tetrazol-5-yl)phenyl)amino)-4-hydroxycyclobut-3-ene-1,2-dione]	1.04 nM	0.36 nM
O=c1c(O)c(Nc2cc(-c3ccc(OCCOc4ccc(C(F)(F)F)cc4)nc3)cc(-c3nn[nH]n3)c2)c1=O [Example 27, 3-((3-(1H-tetrazol-5-yl)-5-(6-(2-(4-(trifluoromethyl)phenoxy)ethoxy)pyridin-3-yl)phenyl)amino)-4-hydroxycyclobut-3-ene-1,2-dione]	0.54 nM	0.75 nM

Reference: patent US20240254093A1, “GPR35 Agonist Compounds” (Heptares Therapeutics Limited, priority 2021, published 2024)
